This note sets out measurements from ChEMBL document CHEMBL4842355, “Improved potency of pyridin-2(1H)one derivatives for the treatment of mechanical allodynia” (Eur J Med Chem, 2021).

The test system of assay [1] is Rattus norvegicus. Description: Anti-allodynic activity in complete freund's adjuvant-induced rat inflammatory pain model assessed as inhibition of inflammatory mechanical allodynia at 10 uM, ic administered 30 min before CFA injection and measured after 120 mins by Von Frey filament assay relative to control. The class given is functional. Particulars: 2.5 h, time 150 min.

Assay [2] deals with T1, Mitogen-activated protein kinase 14 (Homo sapiens, UniProt Q16539). Description: Inhibition of p38 alpha (unknown origin) assessed as residual activity at 1 uM relative to control.
T1 sequence (Q16539 whole entry): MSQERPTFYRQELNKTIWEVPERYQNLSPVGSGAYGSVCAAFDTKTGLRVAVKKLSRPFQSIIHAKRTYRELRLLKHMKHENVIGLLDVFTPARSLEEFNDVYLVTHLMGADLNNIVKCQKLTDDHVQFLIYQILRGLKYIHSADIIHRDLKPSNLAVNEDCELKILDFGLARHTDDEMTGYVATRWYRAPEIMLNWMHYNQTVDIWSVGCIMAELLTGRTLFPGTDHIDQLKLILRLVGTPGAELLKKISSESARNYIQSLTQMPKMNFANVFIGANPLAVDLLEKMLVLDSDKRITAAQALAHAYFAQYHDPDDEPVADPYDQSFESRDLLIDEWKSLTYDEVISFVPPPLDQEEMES
In assay [3] the target is T1, Mitogen-activated protein kinase 14. Description: Inhibition of p38 alpha (unknown origin) at 1 uM relative to control.
The target is the same in assay [4]. Description: Inhibition of p38 alpha (unknown origin).

The inhibition in vivo is the share of the control response that was lost under treatment. For orientation: inhibition means how much of the control response was suppressed. Low readings indicate little suppression, high ones strong suppression. Regarding `O=c1[nH]cc(Nc2ccccc2)cc1-c1ccccc1Br`, the inhibition in vivo at 10 µM in assay [1] came out at 65%. In assay [2], the Activity came out at 59%. Further, in assay [3], the inhibition came out at 41%.

`CCOC(=O)c1ccc(Nc2c[nH]c(=O)c(-c3cccc4[nH]ccc34)c2)cc1`: the Activity in assay [2] came out at 86%.

Turning to `COc1ccccc1Nc1c[nH]c(=O)c(-c2cccc3[nH]ccc23)c1`, the inhibition in vivo at 10 µM in assay [1] was more than 80%. Besides, in assay [2], the Activity is 50%.

Turning to `CCOC(=O)c1cccc(Nc2c[nH]c(=O)c(-c3cccc4[nH]ccc34)c2)c1`, the inhibition in vivo at 10 µM in assay [1] is more than 80%. The Activity in assay [2] came to 81%.

With `COc1ccc(Nc2c[nH]c(=O)c(-c3cccc4[nH]ccc34)c2)cc1`, the inhibition in vivo at 10 µM in assay [1] turned out to be 16%. The Activity in assay [2] stood at 59%.

Take `O=c1[nH]cc(Nc2ccccc2F)cc1-c1cccc2[nH]ccc12`: the Activity in assay [2] stood at 28%. The compound further returned an inhibition in assay [3] of 72%.

Broadly, the IC50 is the concentration that gives 50% inhibition. Low readings indicate higher potency, high ones lower potency. Regarding `Cc1ccccc1Nc1c[nH]c(=O)c(-c2cccc3[nH]ccc23)c1`, in assay [1], the inhibition in vivo at 10 µM was more than 80%. In assay [2], the Activity stood at 33%. Besides, in assay [4], the IC50 was determined as 1100 nM.

Regarding `O=c1[nH]cc(Nc2ccncc2)cc1-c1cccc2[nH]ccc12`, in assay [1], the inhibition in vivo at 10 µM amounted to 100%. In addition, in assay [2], the Activity is 67%. The compound further registered an inhibition in assay [3] of 33%.

With `O=c1[nH]cc(Nc2cccnc2)cc1-c1cccc2[nH]ccc12`, in assay [2], the Activity amounted to 64%.

With `O=c1[nH]cc(Nc2ccccc2[N+](=O)[O-])cc1-c1cccc2[nH]ccc12`, the inhibition in vivo at 10 µM in assay [1] is more than 80%. Also, the Activity in assay [2] turned out to be 92.3%.

Take `O=c1[nH]cc(Nc2ccc(Br)cc2)cc1-c1cccc2[nH]ccc12`: the Activity in assay [2] stood at 43%. Besides, the IC50 in assay [4] came to 2400 nM.

On to `O=c1[nH]cc(Nc2cccc([N+](=O)[O-])c2)cc1-c1cccc2[nH]ccc12`, for which the Activity in assay [2] was determined as 73.9%.

As for `O=c1[nH]cc(Nc2ccccn2)cc1-c1cccc2[nH]ccc12`, the inhibition in vivo at 10 µM in assay [1] is more than 80%. Also, in assay [2], the Activity came out at 70%.

For `O=c1[nH]cc(Nc2ccc([N+](=O)[O-])cc2)cc1-c1cccc2[nH]ccc12`, the inhibition in vivo at 10 µM in assay [1] came to 98%. Moreover, in assay [2], the Activity is 93%.

In the case of `O=c1[nH]cc(Nc2ccccc2)cc1-c1cccc2[nH]ccc12`, the Activity in assay [2] came to 59%.

For the compound `O=c1[nH]cc(Nc2ccc(F)cc2)cc1-c1cccc2[nH]ccc12`, the inhibition in vivo at 10 µM in assay [1] is more than 80%. Also, the Activity in assay [2] was determined as 39%. Besides, half-maximal inhibition in assay [4] (IC50) required 400 nM.

As to `CCOC(=O)c1ccccc1Nc1c[nH]c(=O)c(-c2cccc3[nH]ccc23)c1`, the Activity in assay [2] was found to be 104%.

Take `O=c1[nH]cc(Nc2cccc(Br)c2)cc1-c1cccc2[nH]ccc12`: the Activity in assay [2] worked out at 31%. For the same compound, in assay [4], the midpoint of inhibition, the IC50, lay at 700 nM.

On to `O=c1[nH]cc(Nc2ccccc2Br)cc1-c1cccc2[nH]ccc12`, for which the Activity in assay [2] was determined as 45%.

On to `COc1cccc(Nc2c[nH]c(=O)c(-c3cccc4[nH]ccc34)c2)c1`, for which the inhibition in vivo at 10 µM in assay [1] is more than 80%. In addition, the Activity in assay [2] stood at 50%.

On to `O=c1[nH]cc(Nc2cccc(F)c2)cc1-c1cccc2[nH]ccc12`, for which the inhibition in vivo at 10 µM in assay [1] was more than 80%. Also, the Activity in assay [2] came out at 47%. The IC50 in assay [4] turned out to be 1400 nM.

For `O=c1[nH]cc(Nc2cccc(O)c2)cc1-c1cccc2[nH]ccc12`, the Activity in assay [2] is 34%. Further, the IC50 in assay [4] is 1000 nM.
